The text below walks through data of US20240217968A1, “PHARMACEUTICAL COMPOUND” (DUKE STREET BIO LIMITED, priority 2021, published 2024).

The term IC50 denotes the concentration at which inhibition is half-maximal.

The structures appear in SMILES notation.

The target in this test is T1, recombinant human Flag-tagged PARP7 (amino acids 456-657) (Homo sapiens, UniProt Q7Z3E1).
T1 construct: recombinant human Flag-tagged PARP7 (amino acids 456-657)
T1 sequence (Q7Z3E1 456-657): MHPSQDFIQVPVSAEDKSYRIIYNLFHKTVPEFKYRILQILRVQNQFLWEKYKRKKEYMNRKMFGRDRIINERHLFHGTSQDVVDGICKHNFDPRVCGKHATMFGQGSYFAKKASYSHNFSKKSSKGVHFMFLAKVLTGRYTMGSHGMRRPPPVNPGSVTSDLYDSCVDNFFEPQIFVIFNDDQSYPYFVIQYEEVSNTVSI
The experiment in a line: PARP7 biochemical DELFIA assay (auto-MARylation). The following applies: DELFIA readout, IC50 class. The gist of the method: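 Flag-PARP7 (456-657), 12.5-37.5 nM stock, captured on anti-FLAG wells, preincubated 30 min with compound, then auto-MARylated with biotin-NAD+ (15 μM stock) in HEPES pH 7.5/NaCl/DTT/BSA/Tween for 2-3 h at room temperature. NAD+ quench; Eu-streptavidin DELFIA read, Ex337/Em620 nm.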

Regarding `O=C(CCOCCc1ccc(Cl)c2c(=O)[nH]ncc12)N1CCN(c2ncc(C(F)(F)F)cn2)CC1` [Compound 226], the IC50 was ≤ 0.1 µM.

For the compound `O=C(CCOCCc1c(F)ccc2c(=O)[nH]ncc12)N1CCN(c2ncc(C(F)(F)F)cn2)CC1` [Compound 229], the IC50 is ≤ 0.1 µM.

As for `Cc1c(C)n(CCOCCC(=O)N2CCN(c3ncc(C(F)(F)F)cn3)CC2)c2cn[nH]c(=O)c12` [Compound 230], the concentration for half-maximal inhibition (IC50) is ≤ 0.1 µM.

For `O=C(CCOCCc1cncc2c(=O)[nH]ncc12)N1CCN(c2ncc(C(F)(F)F)cn2)CC1` [Compound 231], the IC50 was ≤ 0.1 µM.

In the case of `O=C(CCOCCn1cc(C(F)(F)F)c2c(=O)[nH]ncc21)N1CCN(c2ncc(Cl)cn2)CC1` [Compound 232], the IC50 is ≤ 0.1 µM.

In the case of `O=C(CCOCCc1cccc2c(=O)[nH]ccc12)N1CCN(c2ncc(C(F)(F)F)cn2)CC1` [Compound 233], the IC50 was ≤ 0.1 µM.

For the compound `O=C1NCCn2c(CCOCCC(=O)N3CCN(c4ncc(C(F)(F)F)cn4)CC3)nc(C(F)(F)F)c21` [Compound 235, 3-(2-(3-oxo-3-(4-(5-(trifluoromethyl)pyrimidin-2-yl)piperazin-1-yl)propoxy)ethyl)-1-(trifluoromethyl)-6,7-dihydroimidazo[1,5-a]pyrazin-8(5H)-one], the concentration for half-maximal inhibition (IC50) is ≤ 0.1 µM.

With `O=C(CCOCCn1nc(C(F)F)c2c(=O)[nH]ncc21)N1CCN(c2ncc(C(F)(F)F)cn2)CC1` [Compound 236, 3-(difluoromethyl)-1-(2-(3-oxo-3-(4-(5-(trifluoromethyl)pyrimidin-2-yl)piperazin-1-yl)propoxy)ethyl)-1,5-dihydro-4H-pyrazolo[3,4-d]pyridazin-4-one], the IC50 is ≤ 0.1 µM.

In the case of `CC1(C)CN(C(=O)CCOCCn2cc(C(F)(F)F)c3c(=O)[nH]ncc32)CCN1c1ccc(C(F)(F)F)cn1` [Compound 237], the half-maximal inhibitory concentration (IC50) is ≤ 0.1 µM.

`O=C(CCOCCn1cc(C(F)(F)F)c2c(=O)[nH]ncc21)N1CCN(c2ccc(Cl)cn2)CC1` [Compound 238]: the IC50 is ≤ 0.1 µM.

Consider `O=C(CCOCCN1C(=O)CCc2c1cn[nH]c2=O)N1CCN(c2ccc(C(F)(F)F)cn2)CC1` [Compound 240, 1-(2-(3-oxo-3-(4-(5-(trifluoromethyl)pyridin-2-yl)piperazin-1-yl)propoxy)ethyl)-4,6-dihydropyrido[2,3-d]pyridazine-2,5(1H,3H)-dione], for which the IC50 is ≤ 0.1 µM.

As to `O=C(CCOCCN1C(=O)CCc2c1cn[nH]c2=O)N1CCN(c2ncc(Cl)cn2)CC1` [Compound 242], the half-maximal inhibitory concentration (IC50) was ≤ 0.1 µM.

Consider `Cc1nn(C(C)COCCC(=O)N2CCN(c3ccc(C#N)cn3)CC2)c2cn[nH]c(=O)c12` (stereo not shown) [Compound 243], for which the half-inhibitory concentration (IC50) is ≤ 0.1 µM.

Take `Cc1nn(C(C)COCCC(=O)N2CCN(c3ccc(C#N)cn3)CC2)c2cn[nH]c(=O)c12` (stereo not shown) [Compound 244]: the IC50 was ≤ 0.1 µM.

As for `Cc1nn(C(C)COCCC(=O)N2CCN(c3ncc(C(F)(F)F)cn3)CC2)c2cn[nH]c(=O)c12` (stereo not shown) [Compound 246], the IC50 was ≤ 0.1 µM.

For the compound `O=C(CCOCCn1nc(C(F)(F)F)c2c(=O)[nH]ncc21)N1CCN(c2ncc(C(F)(F)F)s2)CC1` [Compound 247], the IC50 is ≤ 0.1 µM.

`CC(COCCC(=O)N1CCN(c2nc(C#N)cs2)CC1)n1nc(C(F)(F)F)c2c(=O)[nH]ncc21` (stereo not shown) [Compound 251]: the IC50 is ≤ 0.1 µM.

In the case of `CC(C)(C)c1cnc(N2CCN(C(=O)CCOCCc3cccc4c(=O)[nH]ncc34)CC2)nc1` [Compound 252], the IC50 was ≤ 0.1 µM.

Consider `Cc1nn(CCOCCC(=O)N2CCN(c3ncc(C(F)(F)F)cn3)C(C)C2)c2cn[nH]c(=O)c12` (stereo not shown) [Compound 256], for which the IC50 was ≤ 0.1 µM.

Take `O=C(CCOCCn1nc(C(F)(F)F)c2c(=O)[nH]ncc21)N1CCN(c2nc3ccccc3[nH]2)CC1` [Compound 257]: the IC50 is ≤ 0.1 µM.

`CC(COCCC(=O)N1CCN(c2ncc(C(F)(F)F)s2)CC1)n1nc(C(F)(F)F)c2c(=O)[nH]ncc21` (stereo not shown) [Compound 259]: the IC50 is ≤ 0.1 µM.

With `CCc1nc2c(=O)[nH]ncc2n1CCOCCC(=O)N1CCN(c2ncc(C(F)(F)F)cn2)CC1` [Compound 260], the IC50 lay in the range of 1 to 10 µM.

`O=C(CCOCCN1C(=O)CCc2c1cn[nH]c2=O)N1CCN(c2ccc(Cl)cn2)CC1` [Compound 261]: the concentration for half-maximal inhibition (IC50) was ≤ 0.1 µM.

Turning to `CC(COCCC(=O)N1CCN(c2ncc(C(F)F)cn2)CC1)n1nc(C(F)(F)F)c2c(=O)[nH]ncc21` (stereo not shown) [Compound 264], the IC50 was ≤ 0.1 µM.

Turning to `CC(COCCC(=O)N1CCN(c2ncc(C(F)F)cn2)CC1)n1nc(C(F)(F)F)c2c(=O)[nH]ncc21` (stereo not shown) [Compound 265], the concentration for half-maximal inhibition (IC50) was ≤ 0.1 µM.

As for `CC(COCCC(=O)N1CCN(c2cnc(C(F)(F)F)cn2)CC1)n1nc(C(F)(F)F)c2c(=O)[nH]ncc21` (stereo not shown) [Compound 267], the IC50 was ≤ 0.1 µM.

Turning to `Cc1nn(CCOCCC(=O)N2CCN(c3ncc(C(F)(F)F)cn3)CC2C)c2cn[nH]c(=O)c12` (stereo not shown) [Compound 268], the IC50 was ≤ 0.1 µM.

On to `CC(COCCC(=O)N1CCN(c2ccc(C#N)cn2)CC1)n1nc(C(F)(F)F)c2c(=O)[nH]ncc21` (stereo not shown) [Compound 269], for which the half-inhibitory concentration (IC50) was ≤ 0.1 µM.

Take `N#Cc1ccc(N2CCN(C(=O)CCOCCn3c(C(F)(F)F)nc4c(=O)[nH]ncc43)CC2)nc1` [Compound 272]: the IC50 lay in the range of 1 to 10 µM.

Take `CC(COCCC(=O)N1CCN(c2ncc(Cl)cn2)CC1)n1cc(C(F)(F)F)c2c(=O)[nH]ncc21` (stereo not shown) [Compound 273]: the IC50 is ≤ 0.1 µM.

For `CC(COCCC(=O)N1CCN(c2ccc(OC(F)F)cn2)CC1)n1nc(C(F)(F)F)c2c(=O)[nH]ncc21` (stereo not shown) [Compound 275], the IC50 is ≤ 0.1 µM.

As for `O=C(CCOCCn1nc(C(F)(F)F)c2c(=O)[nH]ncc21)N1CCN(c2nnc(C(F)(F)F)s2)CC1` [Compound 276], the IC50 was ≤ 0.1 µM.

Consider `O=C(CCOCCN1C(=O)CCc2c1cn[nH]c2=O)N1CCN(c2nc3ccccc3o2)CC1` [Compound 277], for which the IC50 is ≤ 0.1 µM.

`CC(COCCC(=O)N1CCN(c2ccc(C3CC3)cn2)CC1)n1nc(C(F)(F)F)c2c(=O)[nH]ncc21` (stereo not shown) [Compound 278]: the IC50 was ≤ 0.1 µM.

Take `O=C(CCOCCc1cccc2c(=O)[nH]ncc12)N1CCC(c2cc(C(F)(F)F)[nH]n2)CC1` [Compound 282]: the IC50 is 1 to 10 µM.

In the case of `CC(COCCC(=O)N1CCN(c2ncc(C#N)s2)CC1)n1nc(C(F)(F)F)c2c(=O)[nH]ncc21` (stereo not shown) [Compound 283], the IC50 is ≤ 0.1 µM.

With `O=C(CCOCCn1nc(C(F)(F)F)c2c(=O)[nH]ncc21)N1CCN(c2ncc(Cl)cn2)CC1` [Compound 285], the IC50 was ≤ 0.1 µM.

`Cc1cnc(N2CCN(C(=O)CCOCC(C)n3nc(C(F)(F)F)c4c(=O)[nH]ncc43)CC2)nc1` (stereo not shown) [Compound 286]: the IC50 was ≤ 0.1 µM.

With `Cc1cnc(N2CCN(C(=O)CCOCC(C)n3nc(C(F)(F)F)c4c(=O)[nH]ncc43)CC2)nc1` (stereo not shown) [Compound 287], the IC50 is ≤ 0.1 µM.

Take `CC(COCCC(=O)N1CCN(c2ncc(C3COC3)cn2)CC1)n1nc(C(F)(F)F)c2c(=O)[nH]ncc21` (stereo not shown) [Compound 288]: the IC50 is ≤ 0.1 µM.

As for `CC(COCCC(=O)N1CCN(c2nnc(C(F)(F)F)s2)CC1)n1nc(C(F)(F)F)c2c(=O)[nH]ncc21` (stereo not shown) [Compound 292], the IC50 was ≤ 0.1 µM.

For the compound `CC(COCCC(=O)N1CCN(c2ncc(OC(F)F)cn2)CC1)n1nc(C(F)(F)F)c2c(=O)[nH]ncc21` (stereo not shown) [Compound 293], the concentration for half-maximal inhibition (IC50) is ≤ 0.1 µM.

`O=C(CCOCCn1nc(C(F)(F)F)c2c(=O)[nH]ncc21)N1CCN(c2ccc(C3COC3)cn2)CC1` [Compound 295]: the IC50 was ≤ 0.1 µM.
